Laboratory results: PMC4745926, “Absorption, Metabolism, and Excretion by Freely Moving Rats of 3,4-DHPEA-EDA and Related Polyphenols from Olive Fruits (Olea europaea)” (Journal of Nutrition and Metabolism, 2016)
Values joined by “and” are separate entries in the source; they are usually repeats but may differ in a detail not shown here. Equal entries are not always repeated. “Also recorded” adds a separate entry of the source. Where two headings read alike, the source gives them in different places.

How the values were obtained:
[1] = Portal plasma pharmacokinetics after oral administration in portal vein cannulated, freely moving rats; type: in vivo, Wistar ST rats; details: for AUC: 0→4 h after oral administration, mean ± SEM; for bioavailability: plasma, intact compound, oral versus intravenous administration, read-out: bioavailability for 4 hours
Procedure: (§1) SPF Wistar ST rats (6 weeks of age, male, 180 ± 20 g of body weight) were purchased from Japan SLC Inc. (Hamamatsu, Japan). The rats were housed in an air-conditioned room at 22 ± 2°C under cycles of 12 hours dark and 12 hours light and given free access to a commercial diet and water for a week. The rats were then fasted for over 16 hours before the experiments. The present study was approved by the Animal Care and Use Committee at Kagawa University, and the rat treatment conformed to the Rules of Animal Experiments at Kagawa University. After fasting, the rats were cannulated with a polyethylene tube (PE-50; 0.58 mm I.D., 0.965 mm O.D.) into the jugular vein, portal vein, or bile duct under anesthesia with isoflurane inhalation using a WP-SAA01 (LMS Co., Ltd., Tokyo, Japan). A small hole was made in the vein or duct using pointed scissors and cannulated with the polyethylene tube. After inserting the tube, it was fixed at the edge of the vein or duct. The jugular vein and portal vein cannulas penetrated under the skin and were then tied at the back of the rats, and the bile duct cannula was tied at the abdomen of the rats. Bile duct-cannulated rats were then restrained in a Bollman cage (Natsume Seisakusho Co., Ltd., Tokyo, Japan). Before further experiments, the rats were allowed to recover from anesthesia. 3,4-[…] (300 mg/kg body weight; 936.51 μmol/kg) dissolved in 50% polyethylene glycol aqueous solution was administered orally via a stomach tube to the portal vein cannulated rats. Blood samples (450 μL) were then collected using a heparinized syringe attached to the cannula before administration and 5, 15, 30, 60, 120, and 240 min after administration. Urine was also collected before administration and 0 to 2 h and 2 to 4 h after administration. For intravenous administration, 3,4-[…] (10 mg/kg; 31.22 μmol/kg) was injected into the jugular vein, and blood (450 μL) was collected using a heparinized syringe before administration and 5, 15, 30, 60, 120, and 240 min after administration via the jugular vein cannula. The blood (450 μL) collected was immediately cooled on ice and centrifuged at 15,000 rpm for 5 min at 4°C to obtain over 200 μL plasma. Urine was also collected before administration and 0 to 2 h and 2 to 4 h after administration. Bile was collected via the bile duct cannula before administration and 0 to 2 h and 2 to 4 h after intravenous administration. The collected plasma, urine, and bile were immediately stored in an ice box until further analyses. HT (oral administration: 100 mg/kg; 648.66 μmol/kg, intravenous administration: 10 mg/kg; 64.87 μmol/kg) and Ole (oral administration: 300 mg/kg; 555.02 μmol/kg, intravenous administration: 10 mg/kg; 18.50 μmol/kg) were investigated using the same method as described above. Metabolites were deconjugated by using β-glucuronidase (500 U) and sulfatase (50 U) in 50 μL 625 mM MOPS (pH 6.8), which was added to 200 μL of plasma, urine, or bile. The mixture was incubated for 45 min at 37°C and subjected to extraction using QuEChERS [33]. […] Shimadzu, Kyoto, Japan) equipped with a Shim-pack XR-ODS column (3.0 mm I.D. × 100 mm; Shimadzu, Kyoto, Japan) at 40°C with a mobile phase of 0.5% TFA-1% acetonitrile aqueous solution (A) and 0.5% TFA-75% acetonitrile aqueous solution (B). The elution conditions are described as follows: isocratic elution of 0% B was maintained for 4.0 min; linear gradient 0 to 4% B, 4.0-4.5 min; linear gradient 4.0-16.0% B, 4.5-16.0 min; linear gradient 16.0-100% B, 16.0-25.0 min; isocratic elution of 100% B, 25.0-26.0 min; and linear gradient 100 to 0% B, 26.0-26.1 min, with a flow rate of 0.5 mL/min. Injection volume was 50 μL. All eluted peaks were detected at 279 nm with a diode array detector (SPD-M20A; Shimadzu, Kyoto, Japan). The absorption of 3,4-[…], and Ole was evaluated by dose-normalized 4 h area under the curve (AUC0→4 h/Dose) and C max/Dose values (Table 2). […]

[2] = Jugular vein plasma levels after intravenous administration in jugular vein cannulated, freely moving rats; type: in vivo, Wistar ST rats; details: for Cmax: analyte HT, at 5 min after intravenous administration, read-out: C max of HT in plasma
Procedure: as §1

[3] = analyte HT in portal plasma after oral administration
[4] = analyte HVA in portal plasma after oral administration
[5] = analyte HVAOH in portal plasma after oral administration
[6] = analyte HT in portal plasma after oral administration, listed as HT
[7] = male, Wistar ST, rat, portal vein plasma, 100 mg/kg, analyte HT in portal plasma after oral administration
[8] = after intravenous administration, 10 mg/kg
[9] = analyte Ole in portal plasma after oral administration
[10] = male, Wistar ST, rat, 300 mg/kg, analyte Ole in portal plasma after oral administration

## CC=C(C=O)C(CC=O)CC(=O)OCCc1ccc(O)c(O)c1 (stereo not shown) [3,4-DHPEA-EDA, 3,4-dihydroxyphenylethyl elenolate dialdehydic form]
[1]; Total of detected analytes in portal plasma after oral administration
  AUC/Dose (AUC0→4 h-i.g./Dosei.g.): 36.4 μM·min·kg/μmol and 36.4 ± 5.9 μM·min·kg/μmol
[1]; Total of detected analytes in portal plasma
  AUC: 34049.5 ± 5539.3 µM·min
[1]; after oral administration, 300 mg/kg, 936.51 μmol/kg, 300 mg/kg
  Detection of parent 3,4-DHPEA-EDA in portal plasma: not observed; also recorded: not detected; also recorded: could not detect
[1]; [3]
  AUC/Dose (AUC0→4 h-i.g./Dosei.g.): 27.7 μM·min·kg/μmol and 27.7 ± 3.3 μM·min·kg/μmol
  C max/Dose: 0.22 μM·kg/μmol
  Cmax: 179 ± 45.3 µM
  T max: 30 min
[1]; analyte HT in portal plasma, triplicate
  AUC: 25935.0 ± 3103.1 µM·min
[1]; [4]
  AUC/Dose (AUC0→4 h-i.g./Dosei.g.): 4.5 μM·min·kg/μmol and 4.5 ± 1.8 μM·min·kg/μmol
  C max/Dose: 0.03 μM·kg/μmol and 0.03 ± 0.007 μM·kg/μmol
  Cmax: 21.5 ± 6.9 µM
  T max: 60 min
[1]; analyte HVA in portal plasma, triplicate
  AUC: 4180.0 ± 1646.5 µM·min
[1]; [5]
  AUC/Dose (AUC0→4 h-i.g./Dosei.g.): 4.2 μM·min·kg/μmol and 4.2 ± 0.8 μM·min·kg/μmol
  C max/Dose: 0.03 μM·kg/μmol and 0.03 ± 0.002 μM·kg/μmol
  Cmax: 22.2 ± 2 µM
  T max: 30 min
[1]; analyte HVAOH in portal plasma, triplicate
  AUC: 3934.5 ± 789.7 µM·min
[1]; total AUC0→4 h-i.g./Dosei.g. including metabolites
  total absorption rate, times less than that of HT: 2.2 times
[1]; total including metabolites in portal plasma after oral administration, Ole = 1
  ratio of AUC/Dose of 3,4-DHPEA-EDA : HT : Ole: 13.5
[2]; analyte HT in jugular vein plasma after intravenous administration
  AUC0→4 h-i.v./Dosei.v.: 259.2 μM·min·kg/μmol
[2]; 10 mg/kg
  Cmax: ~131 µM
[2]; analyte HVA in jugular vein plasma after intravenous administration
  AUC0→4 h-i.v./Dosei.v.: 22.4 μM·min·kg/μmol
[2]; analyte HVAOH in jugular vein plasma after intravenous administration
  AUC0→4 h-i.v./Dosei.v.: 56.0 μM·min·kg/μmol
[2]; jugular vein, after intravenous administration, 10 mg/kg, 31.22 μmol/kg, 10 mg/kg
  Detection of intact 3,4-DHPEA-EDA in plasma and hematocytes: not detected; also recorded: not observed

## OCCc1ccc(O)c(O)c1 [Hydroxytyrosol, 2-(3,4-dihydroxyphenyl) ethyl alcohol, reference compound]
[1]; [3]
  AUC/Dose (AUC0→4 h-i.g./Dosei.g.): 51.1 ± 8.5 μM·min·kg/μmol
  C max/Dose: 0.61 ± 0.089 μM·kg/μmol
[1]; [6]
  AUC/Dose (AUC0→4 h-i.g./Dosei.g.): 51.1 μM·min·kg/μmol
  C max/Dose: 0.61 μM·kg/μmol
[1]; analyte HT in portal plasma after oral administration, listed as hydroxytyrosol
  AUC/Dose (AUC0→4 h-i.g./Dosei.g.): 51.1 μM·min·kg/μmol
[1]; male, Wistar ST, rat
  bioavailability: 13.1%
[1]; [7]
  Cmax: 395 ± 58 µM
  Tmax: 15 min
[1]; male, Wistar ST, rat, portal vein plasma, 100 mg/kg, analyte HT in portal plasma, triplicate, read-out: AUC (converted)
  AUC: 33200 µM·min
[2]; [8]
  Time at which intact compound disappeared from the systemic circulation: about 15 min
[2]; male, Wistar ST, rat, plasma, 10 mg/kg
  Cmax: 1740 µM

## C/C=C1/[C@H](O[C@@H]2O[C@H](CO)[C@@H](O)[C@H](O)[C@H]2O)OC=C(C(=O)OC)[C@H]1CC(=O)OCCc1ccc(O)c(O)c1 [Oleuropein, reference compound]
[1]; [9]
  AUC/Dose (AUC0→4 h-i.g./Dosei.g.): 1.8 ± 0.4 μM·min·kg/μmol
  C max/Dose: 0.021 ± 0.006 μM·kg/μmol
[1]; analyte Ole in portal plasma after oral administration, listed as Ole
  AUC/Dose (AUC0→4 h-i.g./Dosei.g.): 1.8 μM·min·kg/μmol
[1]; [10]
  Cmax: 11.9 ± 3.2 µM
  Tmax: 5 min
[1]; male, Wistar ST, rat, 300 mg/kg, analyte Ole in portal plasma, triplicate, read-out: AUC (converted)
  AUC: 1020 µM·min
[1]; male, Wistar ST, rat
  bioavailability: 0.5%
[2]; after intravenous administration of Ole, 10 mg/kg
  Other metabolites in plasma throughout the blood sampling: could not be detected
[2]; [8]
  Time at which intact compound disappeared from the systemic circulation: ≤ 60 min
[2]; male, Wistar ST, rat, plasma, after intravenous administration, 10 mg/kg, 18.50 μmol/kg, read-out: Ole detected in the plasma at 5 min
  concentration at 5 min: 502 µM
